Test results as given in article PMC12040169 (PLOS Biology, 2025).

Assay: in vitro
Conditions: human, hela cells, % viability

Compound	viability at 28.5 h, 10 µM [%]
CC1CCCCN1C(=O)Cn1cnc2c(Cl)cc(Cl)cc2c1=O (stereo not shown) [CBK306149]	90.3
O=C(NCc1ccccn1)C1CCN(S(=O)(=O)c2ccc(Cl)cc2)CC1 [CBK264959]	90.2
CC(=O)Nc1cccc(-c2nccnc2N[C@H](CO)C(C)C)c1 [CBK036611]	97
COc1cccc(NC(=O)CSc2nnc(CC(C)C)n2C)c1 [CBK269626]	103
CN(C)CCNc1c(N)c(=O)oc2ccccc12 [CBK261472]	89.7
Cc1ccc(Cc2cnc(NC(=O)CN3CCCCC3)s2)cc1Cl [CBK307299]	84.9
Cc1ccc(OCCSc2nnc(N)[nH]2)cc1 [CBK269334]	98.9
COc1ccc(Nc2ncnc3c2c(C)c(C)n3CCO)cc1 [CBK288161]	102
COc1ccc(-n2ncc3c2CC(C)(C)CC3NS(C)(=O)=O)cc1 (stereo not shown) [CBK306759]	88.7
CCOC(=O)C(Cc1ccccc1)NC(=O)c1ccc(C)nc1 (stereo not shown) [CBK305952]	89.6
CN(C)CCN1C(=O)C(O)=C(C(=O)c2ccc(S(=O)(=O)N(C)C)cc2)C1c1cccnc1 (stereo not shown) [CBK264729]	99.7
C[C@@H](Cn1nc2c(cc1=O)CCCC2)NC(=O)Cc1ccc(F)cc1 [CBK284526]	100
Cc1ccc(CC(=O)N2CCCC2c2n[nH]cc2-c2ccncc2)cc1 (stereo not shown) [CBK283424]	106
O=C1CCCN1CCOc1nccnc1-c1cc2ccccc2s1 [CBK106780]	91
O=C(O)c1ccc(CNC(=S)NCC2CCCO2)cc1 (stereo not shown) [CBK266908]	98.2
OC(CSc1ccc(F)cc1)CN1CCN(c2ccc(C(F)(F)F)cn2)CC1 (stereo not shown) [CBK074688]	91.2
COc1cc(Br)c(/C=C(/C#N)C(=O)Nc2ccc(O)cc2)cc1OC [CBK262733]	79.9
O=C(c1c(-c2ccccc2)nnc2ccccc12)N1CCN(CCO)CC1 [CBK066882]	87.3
Cc1nnc(CCn2cnc3cccnc3c2=O)s1 [CBK307125]	96.7
NNC(=O)COc1ccc2ccccc2c1 [CBK261208]	104
C[C@@H](NC(=O)CCN1C(=O)[C@@H]2Cc3ccccc3CN2C1=O)C(=O)O [CBK286709]	93.7

Compound	viability at 28.5 h, 10 µM [%]
O=C(c1ccc2[nH]nnc2c1)N1CCc2ccccc21 [CBK200365]	102
O=C(NCc1ccco1)c1ccc2c(=O)n(-c3ccccc3)c(=O)[nH]c2c1 [CBK287823]	83.7
COc1cc(/C=C2\NC(=O)N(Cc3ccc([N+](=O)[O-])cc3)C2=O)ccc1OC(C)C(=O)O (stereo not shown) [CBK265348]	107
Cc1cc(C2CCCCCN2S(=O)(=O)c2ccc3[nH]c(=O)[nH]c(=O)c3c2)no1 (stereo not shown) [CBK286404]	94.2
Nc1cc(O)n(Cc2ccco2)c(=S)n1 [CBK006010]	99.9
COc1ccc2c(c1)C1(Nc3ccccc3C(=O)N1c1ccccc1)C(=O)N2 (stereo not shown) [CBK103747]	94.1
N#Cc1cccc(C(=O)NCC2(N3CCOCC3)CCSC2)c1 (stereo not shown) [CBK306344]	121
O=C(c1ccccc1)N1C[C@H](c2ccsc2)[C@H]2CN(Cc3cccs3)CC[C@H]21 [CBK285623]	95.8
O=C(NCC1CCNCC1)c1ccncc1 [CBK267637C]	95
Cc1nc2ccccc2n1CC(O)COc1ccccc1 (stereo not shown) [CBK288084]	106
CC(Oc1ccccc1)C(=O)Nc1cccc(C#N)c1 (stereo not shown) [CBK264062]	91
N#C/C(=C\c1cn(CCC(N)=O)c2ccccc12)Sc1nc2ccccc2s1 [CBK267897]	103
O=S(=O)(N1CCCCC1)N1CCN(CC(O)COc2ccc(-c3ccccc3)cc2)CC1 (stereo not shown) [CBK269370]	94.9
Cc1ncccc1COC(=O)N1CCCC(F)C1 (stereo not shown) [CBK200155]	118
O=C(CCc1ccccc1)Nc1cccc(N2C(=O)C3C4c5ccccc5C(c5ccccc54)C3C2=O)c1 (stereo not shown) [CBK265409]	91.1
COc1ccc(-c2ccc(=O)n3c2[C@@H]2C[C@@H](CN(C(=O)NC4CCCCC4)C2)C3)cc1 [CBK289189]	82.1
Cc1cccc(OCCn2c(CCNC=O)nc3ccccc32)c1C [CBK269539]	104
COc1ccc(C(=O)N2CCN(c3ncnc4onc(C)c34)CC2)cc1 [CBK304372]	93.5
O=C1CC(C(=O)Nc2cccc(C(=O)O)c2)C(c2ccccc2)O1 (stereo not shown) [CBK293968]	87.1
Cc1cccc(CCNC(=O)C2CN(C(=O)C3CCN(C)CC3)C2)c1 [CBK281967]	98.4
Cn1ccc(CN2CCOC(c3nccs3)C2)cc1=O (stereo not shown) [CBK304921]	88.8

Compound	viability at 28.5 h, 10 µM [%]
CCc1nc(CN2CCN(c3ccc4nc(C)nn4n3)CC2)cs1 [CBK306285]	89.1
CCC(C)NC(=O)C1(Cc2ccc(-c3cc(F)ccc3OC)cc2)CCOCC1 (stereo not shown) [CBK285539]	102
C/C(C(=O)O)=C(/C)C(=O)N1CCC2(CC1)NCCc1c2[nH]c2ccc(C)cc12 [CBK047026]	100
CCCn1ncnc1C(C)NC(=O)Nc1ccnn1CC(C)C (stereo not shown) [CBK307545]	116
S=C(Nc1ccccc1)N1CCCCC1CN1CCCCC1 (stereo not shown) [CBK006196]	112
CC(C)Nc1nccnc1-c1cccnc1 [CBK037054]	98.9
CC(NC(=O)c1ccc(=O)n(C)n1)c1ccc2c(c1)CCCC2 (stereo not shown) [CBK281416]	91.9
COc1ccc(C(=O)N2CCC3(CCN(CCCCC4NC(=O)NC4=O)C3)C2)cc1OC (stereo not shown) [CBK132169]	83
O=C(c1ccccc1)N1C[C@H](c2ccc(F)cc2)[C@H]2CN(Cc3ccccc3F)CC[C@H]21 [CBK286289]	90.1
CCCCCCC(C)n1c(-c2nonc2N)nc2ccccc21 (stereo not shown) [CBK062648]	94.2
CCC(COC)NS(=O)(=O)c1ccc(C(C)C)cc1 (stereo not shown) [CBK044587]	108
CCCn1nc(C)c(-c2cncn2CCN(C)C2CCCC2)c1C [CBK281790]	91.3
COc1ccc(-c2nc(-c3ccncc3)ncc2C(=O)NCc2ccncc2)cc1 [CBK291112]	96.4
O=C(Nc1cccc(-c2nc3ncccc3o2)c1)c1cccc(OCc2ccccc2)c1 [CBK263126]	86.2
Cc1nnc2n1-c1ccccc1SC(c1ccccc1)C2 (stereo not shown) [CBK016040]	92.9
O=[N+]([O-])c1ccc(O)c(/C=N/c2ccc(Oc3ccc(/N=C/c4cc([N+](=O)[O-])ccc4O)cc3)cc2)c1 [CBK261093]	96.7
C[C@@H](c1ccccc1)n1c(=O)[nH]c2ncc(-c3cccc(/C=C/C(=O)O)c3)nc21 [CBK065040]	106
COc1ccc2[nH]cc(CCNC(=O)N3CCCC(C(=O)O)C3)c2c1 (stereo not shown) [CBK161351]	108
CC(C)NS(=O)(=O)c1ccc(NC(=O)COc2ccc3ccccc3c2Br)cc1 [CBK267920]	94.3
CC(C)(C)NC(=O)Cn1cncc1-c1ccc2c(c1)CC(C)(C)O2 [CBK281980]	113
Cc1nc(C2CCN(C(=O)C3CCC3)CC2)nc2c1CCCN2CCc1ccccc1 [CBK285645]	97.3

Same assay, conditions: human, hela cells, % viability, bulk resorufin, single well

Compound	viability at 28.5 h, 10 µM [%]
CSc1cc(C)c2c(c1)COC1(CCN(C(=O)Nc3c(C)noc3C)CC1)O2 [CBK060699]	95.3
